Source: paper PMC13222238, “Development of a gut microbiota model for the analysis of bacterial modifications of xenobiotics” (Applied Microbiology and Biotechnology, 2026)

Assays:
[1] = physchem
Protocol: (§1) To enable parameter-based comparison of compound conversion across incubation matrices, apparent first-order kinetic parameters were calculated from precursor compound depletion data. Only quantifiable time points were considered. Because these values represent apparent kinetic estimates derived from a limited number of sampling points, they were interpreted primarily for comparative purposes. Detailed experimental conditions and analytical parameters are provided in Supplementary Tab. S2.
(§2) Table S1: Composition of the modified SHIME®-based regeneration media.
(§3) To evaluate microbial xenobiotic metabolism under defined conditions, incubations were conducted using model substrates representing major biotransformation classes: 4- […]
reduction), and nitrendipine (nitro group reduction). Reaction mixtures were prepared under anaerobic conditions (37°C, 24 h) as follows: (i) 210 µL SHIME® saline containing the fiber-rich substrate formulation with 1 g L-1 mucin, pectin, and xylan (substrate control), (ii) 150 µL pooled fecal suspension (three individual pools with n = 3 donors each, 1:10 diluted in SHIME® saline) + 60 µL fiber-rich substrate, (iii) […] pooled exoenzyme fraction (three individual pools with n = 3 donors each, 1:10 in SHIME® saline), and (iv) 150 µL bacterial colon model + 60 µL fiber-rich substrate. All incubations contained 500 µM of the respective test compound.
(§4) At defined time points, samples were mixed 1:1 (v/v) with ethanol, vortexed, and centrifuged […]
(§5) (18,000 × g, 3 min). The resulting supernatant was combined 1:1 (v/v) with acetonitrile (100 %) […]
The clarified supernatant was diluted with the mobile phase prior to injection. Non-polar and UV-absorbing compounds were analyzed on a Knauer Eurospher II C8 column (250 × 4 mm, 5 µm) with a C8 guard cartridge using an AZURA CT 2 system (Knauer, Berlin, Germany) equipped with a SpectraSystem SCM1000 degasser, P4000 pump, AS3000 autosampler, and UVD 2.1L detector. Paracetamol was analyzed on a Shodex Asahipak NH2P-50 3E column (Showa Denko, Japan) with a corresponding guard column and an RI-101 detector (Ercatech AG, Germany). Chromatographic parameters, including mobile-phase composition, column temperature, flow rate, and detection wavelength are summarized in Suppl. Tab. […]. Quantification of parent compounds and metabolites was performed by external calibration using analytical reference standards.
(§6) Table S2: Chromatographic conditions for HPLC-based detection of selected xenobiotics and their microbial transformation products. Analytes were separated on either C8 or amino columns under compound-specific conditions. Mobile phases consisted of acetonitrile (ACN) with acidic modifiers and were operated under isocratic flow. Detection wavelengths correspond to the absorbance maxima […]
(§7) Column Mobile phase Tempera Flow rate UV detection […]
To confirm the identity of selected biotransformation products, representative samples were analyzed by liquid chromatography-mass spectrometry (LC-MS). Samples were mixed 1:1 (v/v) with ethanol and centrifuged (18,000 × g, 5 min). From the resulting supernatant, 50 µL were diluted in 450 µL H₂O: ACN (70:30, v/v). Prior to analysis, samples were filtered through

[2] = in vitro; conditions: human
Protocol: as §1
(§8) To evaluate the metabolic capabilities of the human colon model presented here, a panel of structurally diverse xenobiotics was selected based on microbial biotransformation reactions reported in the literature (Fig. 7, Supplementary Fig. S2). […] Together, these reference substrates served as model compounds covering major gut microbial transformation chemistries, enabling a matrix-to-matrix performance evaluation of the colon model. […] Product levels were estimated using the nitrendipine calibration and are therefore semi-quantitative.
as §2, §3
(§9) reduction), and nitrendipine (nitro group reduction). Reaction mixtures were prepared under […]
(§10) rich substrate formulation with 1 g L-1 mucin, pectin, and xylan (substrate control), (ii) 150 µL pooled fecal suspension (three individual pools with n = 3 donors each, 1:10 diluted in SHIME® saline) + 60 µL fiber-rich substrate, (iii) 300 µL pooled exoenzyme fraction (three individual pools with n = 3 donors each, 1:10 in SHIME® saline), and (iv) 150 µL bacterial colon model + 60 µL fiber-rich substrate. All incubations contained 500 µM of the respective test compound.
as §4, §5
(§11) The clarified supernatant was diluted with the mobile phase prior to injection. Non-polar and UV-absorbing compounds were analyzed on a Knauer Eurospher II C8 column (250 × 4 mm, 5 µm) with a C8 guard cartridge using an AZURA CT 2 system (Knauer, Berlin, Germany) equipped with a SpectraSystem SCM1000 degasser, P4000 pump, AS3000 autosampler, and UVD 2.1L detector. Paracetamol was analyzed on a Shodex Asahipak NH2P-50 3E column (Showa Denko, Japan) with a corresponding guard column and an RI- […]
(§12) Chromatographic parameters, including mobile-phase composition, column temperature, flow rate, and detection wavelength are summarized in Suppl. Tab. S1. Quantification of parent compounds and metabolites was performed by external calibration using analytical reference standards.
as §6, §7

[3] = tested on: pooled human fecal slurry; test: in vitro
Protocol: as §1, §8, §2, §3, §9, §10, §4, §5, §11, §12, §6, §7

[4] = Xenobiotic depletion in the bacterial colon model, anaerobic incubation; conditions: human
Protocol: (§13) Our model was based on the isolation of intact bacterial communities from human feces. Bacterial isolation was performed using a modified density gradient centrifugation protocol first described by Hevia et al. ([2015]). To detach bacteria adhering to particulate matter and embedded within fecal biofilms, 0.001% (w/v) cetyltrimethylammonium bromide (CTAB) was added to each diluted fecal sample 30 min prior to further processing (Macfarlane et al. [1997]). All steps involving open sample handling were conducted under strictly anaerobic conditions (79% N2, 19% CO2, 2% H2) within a vinyl anaerobic chamber (Coy Laboratory Products, Grass Lake, Michigan, USA). Samples from three donors were randomly pooled for each preparation to reduce variability among individuals. From each pooled and diluted fecal suspension, 15 mL were layered onto 3.5 mL of 55% (w/v) Nycodenz® (Serumwerk Bernburg AG, Bernburg, Germany) in anaerobic centrifuge tubes. The samples were then centrifuged at 4000 × g for 30 min at room temperature.
(§14) To further purify the extracellular enzyme (exoenzyme) fraction, the supernatant was centrifuged at 18,000 × g for 3 min at 4 °C. The resulting preparation was then sterile-filtered three times through 0.22-µm syringe filters to ensure complete removal of remaining microbial cells. The sterile exoenzyme fraction was stored anaerobically at −70 °C until further use. The middle layer, which contained the gut bacteria, was collected and referred to as the bacterial colon model. The isolated microbiota was then diluted in sterile 50% (v/v) glycerol and stored at −70 °C under anaerobic conditions. Prior to use in experiments, the cryopreserved cells were washed three times with modified SHIME® saline (18,000 × g, 3 min, 4 °C) to remove any remaining Nycodenz®, glycerol, and particulate material. The final cell suspension was adjusted to an optical density at 600 nm (OD600) of 10, corresponding to approximately 1.43 × 10^10 cells mL^−1, as determined microscopically using a Neubauer counting chamber (Hager et al. [2025]). This microbial density was about 16% of the mean in vivo bacterial concentration in the human colon, estimated at 8.8 × 10^10 cells mL^−1 (assuming a fecal density of 1.04 g mL^−1 (Sender et al. [2016])).
as §1
(§15) To evaluate the metabolic capabilities of the human colon model presented here, a panel of structurally diverse xenobiotics was selected based on microbial biotransformation reactions reported in the literature (Fig. 7, Supplementary Fig. S2). […] Together, these reference substrates served as model compounds covering major gut microbial transformation chemistries, enabling a matrix-to-matrix performance evaluation of the colon model. All compounds were incubated anaerobically for 24 h with pooled human fecal slurry, the bacterial colon model, and the sterile-filtered fecal exoenzyme fraction, derived from three independent donor pools (n = 3 each).

[5] = tested on: bacterial colon model; test: in vitro; conditions: for apparent first-order rate constant (k): 500 µM
Protocol: as §13, §14, §1, §15

[6] = Xenobiotic depletion in the sterile-filtered fecal exoenzyme fraction; format: in vitro ADME, human; conditions: human, sterile-filtered fecal exoenzyme fraction (cell-free), 500 µM test compound, anaerobic, 37°C, 24 h, three donor pools, read-out: half-life (t1/2) (converted)
Protocol: (§16) To further purify the extracellular enzyme (exoenzyme) fraction, the supernatant was centrifuged at 18,000 × g for 3 min at 4 °C. The resulting preparation was then sterile-filtered three times through 0.22-µm syringe filters to ensure complete removal of remaining microbial cells. The sterile exoenzyme fraction was stored anaerobically at −70 °C until further use. The middle layer, which contained the gut bacteria, was collected and referred to as the bacterial colon model. The isolated microbiota was then diluted in sterile 50% (v/v) glycerol and stored at −70 °C under anaerobic conditions.
as §1, §8, §2, §3, §9, §10, §4, §5, §11
(§17) Chromatographic parameters, including mobile-phase composition, column temperature, flow rate, and detection wavelength are summarized in Suppl. Tab. S1. Quantification of parent compounds and metabolites was performed by […]

[7] = tested on: sterile-filtered fecal exoenzyme fraction; test: as above; format: in vitro ADME, human; conditions: anaerobic, 24 h
Protocol: as §16, §1, §8, §2, §3, §9, §10, §4, §5, §11, §17

[8] = 500 µM test compound, 37°C, three donor pools
[9] = buffer, 500 µM test compound, anaerobic, 37°C, 24 h
[10] = fecal slurry, 500 µM test compound, anaerobic, 37°C, 24 h, three donor pools

SMILES	apparent first-order rate constant (k) ([1]; 500 µM) [h⁻¹]	half-life at 500 µM ([1]; buffer) [h]	half-life at 500 µM [2] [h]	apparent first-order rate constant (k) ([3]; human, 500 µM) [h⁻¹]	half-life at 500 µM [4] [h]	apparent first-order rate constant (k) ([5]; human) [h⁻¹]	half-life at 500 µM [6] [h]	apparent first-order rate constant (k) [7, 8] [h⁻¹]	conversion in the exoenzyme fraction (in words) [7]	apparent first-order rate constant (k) [1, 9] [h⁻¹]	half-life (t1/2) [1, 9] [h]	conversion in fecal slurry (in words) ([3]; fecal slurry, anaerobic, 24 h)	apparent first-order rate constant (k) [3, 10] [h⁻¹]	half-life (t1/2) [3, 10] [min]	conversion in the bacterial colon model (in words) [5]	half-life (t1/2) ([5]; human) [min]	half-life (t1/2) [7, 8] [min]	conversion in the exoenzyme fraction (in words) ([7]; listed as 4-acetoxyacetanilide)
CCOC(=O)C1=C(C)NC(C)=C(C(=O)OC)C1c1cccc([N+](=O)[O-])c1 (centres unmarked) [Nitrendipine, nitrendipine]	0.0009	> 24	1.58	0.44	0.75	0.92	> 24	0.002	no relevant conversion	–	–	–	–	–	–	–	–	–
O=C(N[C@H](CO)[C@H](O)c1ccc([N+](=O)[O-])cc1)C(Cl)Cl [Chloramphenicol, chloramphenicol]	–	> 24	1.54	0.45	1.47	0.47	> 24	0.003	–	–	–	–	–	–	–	–	–	–
O=C(O)c1cc(/N=N/c2ccc(S(=O)(=O)Nc3ccccn3)cc2)ccc1O [Sulfasalazine, sulfasalazine]	0.002	> 24	–	0.93	–	1.20	> 24	0.003	–	–	–	–	–	–	–	–	–	–
CC1=C(CC(=O)O)c2cc(F)ccc2/C1=C\c1ccc([S+](C)[O-])cc1 (centres unmarked) [Sulindac, sulindac]	0.0003	> 24	5.78	0.12	3.47	0.20	> 24	0.003	no meaningful conversion	–	–	–	–	–	–	–	–	–
CC(=O)Nc1ccc(OC(C)=O)cc1 [4-Acetoxyacetanilide, 4-acetoxyacetanilide]	–	–	–	–	–	–	–	13.46	clear hydrolytic activity	0.02	> 24	rapidly degraded	15.38	3	rapidly degraded	1.8	3	relevant activity
CC(=O)OCC(=O)NCCCOc1cccc(CN2CCCCC2)c1 [Roxatidine-acetate, roxatidine-acetate]	0.005	> 24	0.6	1.16	0.61	1.13	4.33	0.16	–	–	–	–	–	–	–	–	–	–
